The values below come from patent US20250325645A1, “BOVINE VIRAL DIARRHEA VIRUS IMMUNOGENIC COMPOSITIONS AND METHODS OF USE THEREOF” (KANSAS STATE UNIVERSITY RESEARCH FOUNDATION, priority 2021, published 2025).

For this experiment, the system named is CD8+ T cells from BVDV-immunized steers. As to the kind of experiment: MHC I blocking ELISPOT assay. The following applies: steers 2539 and 2593; 2.5 μg/ml peptide; mAbs H58A and PT85A at 1.0 μg/ml vs IgG2a isotype control; p<0.05.
Procedure: Co-cultures of CD8+ T cells and autologous CD14+ monocytes from one TGAC-immunized steer (2539) and one A125-immunized steer (2593), were incubated with 2.5 μg/ml of peptide in the presence of either the two anti-bovine MHC I mAbs or IgG2a isotype control. The IFN-γ+CD8+ T cell responses in the presence or absence of anti-bovine MHC I mAbs were reported as SFC per million CD8+ T cells described as above.
The results from MHC I blocking ELISPOT assay were analyzed by Wilcoxon test in GraphPad Prism 7 (Version 7.04, GraphPad Software, Inc. La Jolla, CA). The significance of the difference in peptide-specific IFN-γ+CD8+ T cell responses in the absence or presence of anti-bovine MHC I mAbs was determined by a non-parametric test and the level of significance was set at p<0.05.
Turning to FGAYAASPY [Peptide 86], the “IFN-γ+CD8+ T cell recall responses in the presence of anti-bovine MHC I mAbs” value is recorded as “significantly reduced”.
Regarding GPVYHRAPL [Peptide 61], the “IFN-γ+CD8+ T cell recall responses in the presence of anti-bovine MHC I mAbs” value was “significantly reduced”.
Under GSVWNLGKY [Peptide 56] stands “significantly reduced”; under SEQKRTLLM [Peptide 37], “significantly reduced”.
Then YFEPRDNYF [Peptide 100], with “significantly reduced”; and YYDDNLNEI [Peptide 64], with “significantly reduced”.
